Experimental data reported in ChEMBL document CHEMBL6121066, “Structure-Activity Relationship Studies of DNA Methyltransferase 1 Monovalent Degraders” (J Med Chem, 2025).
The source made the active and inactive calls. No cut-off for these calls is given here.

Columns and labels:
HCT-116 [1] = assay: Induction of molecular glue effect mediated DNMT1 degradation in human HCT-116 cells assessed as reduction in DNMT1 protein level at 500 nM measured after 2 hrs by Western blot analysis relative to control; assay type: cell-based; set-up: scale not given: the % may be the effect or the level left
HCT-116 [2] = assay: Induction of molecular glue effect mediated DNMT1 degradation in human HCT-116 cells assessed as reduction in DNMT1 protein level by measuring half-life at 500 nM preincubated with cycloheximide for 2 hrs followed by compound administration and measured after 24 hrs by Western blot analysis; assay type: cell-based
HCT-116 [3] = assay: Effect on DNMT1 mRNA level in human HCT-116 cells at 500 nM incubated for 24 hrs by RT-qPCR analysis; assay type: functional, cell-based
[4] = target: DNA (cytosine-5)-methyltransferase 3B (Homo sapiens) (UniProt Q9UBC3); assay: Inhibition of human full-length DNMT3B using lambda DNA and SAM as substrate at 1 uM by radioisotope-based MT HotSpot assay relative to control
[5] = target: T1, Histone-lysine N-methyltransferase EHMT2 (Homo sapiens) (UniProt Q96KQ7); assay: Inhibition of human G9a using histone H3 and SAM as substrate at 1 uM by radioisotope-based MT HotSpot assay relative to control
T1 sequence (whole entry): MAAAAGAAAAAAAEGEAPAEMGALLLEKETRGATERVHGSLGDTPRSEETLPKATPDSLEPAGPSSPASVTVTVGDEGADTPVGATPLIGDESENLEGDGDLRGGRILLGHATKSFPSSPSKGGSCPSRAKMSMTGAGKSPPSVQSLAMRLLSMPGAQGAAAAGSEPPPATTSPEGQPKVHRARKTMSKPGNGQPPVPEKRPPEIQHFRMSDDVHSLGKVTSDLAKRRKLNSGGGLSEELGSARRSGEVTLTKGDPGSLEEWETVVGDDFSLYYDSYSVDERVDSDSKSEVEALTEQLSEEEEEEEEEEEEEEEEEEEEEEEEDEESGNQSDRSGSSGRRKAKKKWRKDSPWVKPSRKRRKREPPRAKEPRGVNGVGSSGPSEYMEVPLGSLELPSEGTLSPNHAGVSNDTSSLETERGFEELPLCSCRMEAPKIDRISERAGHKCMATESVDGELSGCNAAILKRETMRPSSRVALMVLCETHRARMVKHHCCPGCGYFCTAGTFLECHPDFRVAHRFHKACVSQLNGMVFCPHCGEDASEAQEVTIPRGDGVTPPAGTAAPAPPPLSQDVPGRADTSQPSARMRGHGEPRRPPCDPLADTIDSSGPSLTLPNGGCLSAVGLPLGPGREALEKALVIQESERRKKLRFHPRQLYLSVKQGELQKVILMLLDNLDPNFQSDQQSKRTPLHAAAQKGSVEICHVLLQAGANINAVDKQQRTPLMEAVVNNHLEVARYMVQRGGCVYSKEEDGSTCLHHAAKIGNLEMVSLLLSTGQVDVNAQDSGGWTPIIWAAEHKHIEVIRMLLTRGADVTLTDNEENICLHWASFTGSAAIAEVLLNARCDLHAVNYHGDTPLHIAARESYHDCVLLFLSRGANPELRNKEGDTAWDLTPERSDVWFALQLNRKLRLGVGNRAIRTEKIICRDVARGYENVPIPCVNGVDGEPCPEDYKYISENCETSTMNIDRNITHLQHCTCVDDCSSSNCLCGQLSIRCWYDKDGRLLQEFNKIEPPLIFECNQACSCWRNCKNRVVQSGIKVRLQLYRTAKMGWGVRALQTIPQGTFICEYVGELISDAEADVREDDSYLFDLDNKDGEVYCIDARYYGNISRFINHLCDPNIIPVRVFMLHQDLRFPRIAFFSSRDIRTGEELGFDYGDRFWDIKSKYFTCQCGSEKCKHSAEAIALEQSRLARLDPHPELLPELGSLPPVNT

[6] = target: Protein arginine N-methyltransferase 6 (Homo sapiens) (UniProt Q96LA8); assay: Inhibition of human PRMT6 using GST-GAR and SAM as substrate at 1 uM by radioisotope-based MT HotSpot assay relative to control
HCT-116 [7] = assay: Induction of molecular glue effect mediated DNMT3A degradation in human HCT-116 cells assessed as reduction in DNMT3A protein level at 500 nM incubated for 24 hrs by Western blot analysis; assay type: cell-based
MDA-MB-468 = assay: Induction of molecular glue effect mediated DNMT1 degradation in human MDA-MB-468 cells assessed as reduction in DNMT1 protein level at 100 nM preincubated with MG132 for 2 hrs followed by compound addition and measured after 24 hrs by Western blot analysis; assay type: cell-based
HCT-116 [8] = assay: Induction of molecular glue effect mediated DNMT1 degradation in human HCT-116 cells assessed as reduction in DNMT1 protein level at 100 nM preincubated with TRAF6 inhibitor C25-140 for 2 hrs followed by compound addition and measured after 24 hrs by Western blot analysis; assay type: cell-based
HCT-116 [9] = assay: Induction of molecular glue effect mediated DNMT1 degradation in human HCT-116 cells assessed as reduction in DNMT1 protein level at 100 nM preincubated with heclin for 2 hrs followed by compound addition and measured after 24 hrs by Western blot analysis; assay type: cell-based
HCT-116 [10] = assay: Induction of molecular glue effect mediated DNMT1 degradation in human HCT-116 cells transfected with UHRF1 siRNA assessed as reduction in DNMT1 protein level at 100 nM measured after 24 hrs by Western blot analysis; assay type: cell-based

Sequence of Protein arginine N-methyltransferase 6 (Homo sapiens) (Q96LA8 whole entry, looked up): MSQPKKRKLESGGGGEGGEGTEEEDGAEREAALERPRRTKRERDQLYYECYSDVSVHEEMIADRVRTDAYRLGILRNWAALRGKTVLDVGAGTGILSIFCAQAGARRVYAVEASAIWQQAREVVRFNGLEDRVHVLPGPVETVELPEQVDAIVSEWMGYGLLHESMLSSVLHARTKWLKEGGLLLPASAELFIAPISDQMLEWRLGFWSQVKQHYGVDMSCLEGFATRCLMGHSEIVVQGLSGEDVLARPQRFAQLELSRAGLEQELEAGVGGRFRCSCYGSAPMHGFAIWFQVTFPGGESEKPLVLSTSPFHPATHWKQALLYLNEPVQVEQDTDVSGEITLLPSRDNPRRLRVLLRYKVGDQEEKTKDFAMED

inhibition [4]: < 20% | inhibition [5]: < 20% | inhibition [6]: < 20%
SMILES: CCc1c(C#N)c(SC(C(N)=O)c2ccccc2)nc(N(C)CC(=O)NC)c1C#N (stereo unspecified)
Activity (HCT-116 [1]): 50% | T1/2 (HCT-116 [2]): < 4 h | Activity (HCT-116 [3]): inactive | Activity (HCT-116 [7]): inactive | Activity (MDA-MB-468): inactive | Activity (HCT-116 [8]): Active | Activity (HCT-116 [9]): Not active; Partial Rescue Of Degradation Observed | Activity (HCT-116 [10]): Not active; Partial Rescue Of Degradation Observed
